Assays:
ABL^F317I = ABL^F317I (Homo sapiens, UniProt P00519, F317I); experiment: In vitro enzymatic activity, imatinib-resistant mutant panel; type: biochemical
ABL^E255K = ABL^E255K (Homo sapiens, UniProt P00519, E255K); experiment: as above
CAKI-1 = experiment: NCI-60 five-dose SRB assay; type: cell-based; conditions: Homo sapiens; CAKI-1, renal cancer
K-562 = system: K-562; design: method as in earlier work; conditions: imatinib mesylate NSC 743414, NCI data; cited from earlier work
COLO 205 = system: COLO 205; design: method as in earlier work; conditions: imatinib mesylate NSC 743414, NCI data; cited from earlier work
NCI/ADR-RES = system: NCI/ADR-RES; design: method as in earlier work; conditions: imatinib mesylate NSC 743414, NCI data; cited from earlier work
NCI-H460 = system: NCI-H460; design: method as in earlier work; conditions: imatinib mesylate NSC 743414, NCI data; cited from earlier work
SK-OV-3 = system: SK-OV-3; design: method as in earlier work; conditions: imatinib mesylate NSC 743414, NCI data; cited from earlier work
SK-MEL-5 = system: SK-MEL-5; design: method as in earlier work; conditions: imatinib mesylate NSC 743414, NCI data; cited from earlier work
HOP-92 = system: HOP-92; design: method as in earlier work; conditions: imatinib mesylate NSC 743414, NCI data; cited from earlier work
MOLT-4 = system: MOLT-4; design: method as in earlier work; conditions: imatinib mesylate NSC 743414, NCI data; cited from earlier work

Sequence of ABL^E255K (P00519 whole entry E255K): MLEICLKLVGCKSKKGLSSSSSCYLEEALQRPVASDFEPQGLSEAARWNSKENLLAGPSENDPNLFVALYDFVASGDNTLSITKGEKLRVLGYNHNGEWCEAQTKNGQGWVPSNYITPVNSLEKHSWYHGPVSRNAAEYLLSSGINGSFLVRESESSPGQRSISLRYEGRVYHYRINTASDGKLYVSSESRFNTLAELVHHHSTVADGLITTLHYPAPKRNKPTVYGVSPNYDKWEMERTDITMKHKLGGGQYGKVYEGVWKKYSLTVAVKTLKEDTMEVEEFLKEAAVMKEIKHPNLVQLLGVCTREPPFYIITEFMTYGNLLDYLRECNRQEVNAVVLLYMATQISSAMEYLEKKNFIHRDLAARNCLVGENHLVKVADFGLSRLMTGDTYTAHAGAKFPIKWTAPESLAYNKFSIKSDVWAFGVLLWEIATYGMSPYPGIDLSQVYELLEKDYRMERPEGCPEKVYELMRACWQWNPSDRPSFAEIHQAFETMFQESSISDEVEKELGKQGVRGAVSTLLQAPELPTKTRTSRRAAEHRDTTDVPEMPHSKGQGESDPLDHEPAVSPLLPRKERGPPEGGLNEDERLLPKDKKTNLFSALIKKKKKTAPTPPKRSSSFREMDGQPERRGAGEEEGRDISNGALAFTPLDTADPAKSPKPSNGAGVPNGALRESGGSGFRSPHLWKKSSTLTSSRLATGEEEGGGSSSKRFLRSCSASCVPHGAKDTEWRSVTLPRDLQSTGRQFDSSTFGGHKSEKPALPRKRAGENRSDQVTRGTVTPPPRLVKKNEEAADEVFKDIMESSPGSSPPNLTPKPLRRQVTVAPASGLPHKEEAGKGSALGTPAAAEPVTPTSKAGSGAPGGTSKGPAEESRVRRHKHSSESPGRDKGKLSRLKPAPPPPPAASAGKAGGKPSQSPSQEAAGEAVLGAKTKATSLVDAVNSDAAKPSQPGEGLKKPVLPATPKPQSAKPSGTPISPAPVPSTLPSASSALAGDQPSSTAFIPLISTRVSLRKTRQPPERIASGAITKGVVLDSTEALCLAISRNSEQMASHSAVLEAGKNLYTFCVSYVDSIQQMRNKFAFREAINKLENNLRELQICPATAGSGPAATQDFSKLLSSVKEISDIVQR
Sequence of ABL^F317I (P00519 whole entry F317I): as the sequence (P00519 whole entry E255K) above, with K255E, F317I counted along it

CCN1CCN(c2ccc(NC(=O)Nc3nc4ccc(-c5ccccc5OC)cc4s3)cc2)CC1 [Compound 2b]
IC50 (ABL^F317I): 0.00516 µM
IC50 (ABL^E255K): 0.00247 µM

COc1ccccc1-c1ccc2nc(NC(=O)Nc3cc(C(F)(F)F)cc(C(F)(F)F)c3)sc2c1 [Compound 2e]
GI50 (CAKI-1): 2.33 µM

Cc1ccc(NC(=O)c2ccc(CN3CCN(C)CC3)cc2)cc1Nc1nccc(-c2cccnc2)n1 [Imatinib]
GI50 (K-562): 0.02 µM
GI50 (COLO 205): 17.6 µM
GI50 (NCI/ADR-RES): 23 µM
GI50 (NCI-H460): 16.2 µM
GI50 (SK-OV-3): 28.9 µM
GI50 (SK-MEL-5): 12.1 µM
GI50 (HOP-92): 13.3 µM
GI50 (MOLT-4): 5.13 µM

Source: article PMC10026764, “Overcoming the imatinib-resistant BCR-ABL mutants with new ureidobenzothiazole chemotypes endowed with potent and broad-spectrum anticancer activity” (Journal of Enzyme Inhibition and Medicinal Chemistry, 2023)
